Reference: ChEMBL document CHEMBL4840346, “Amakusamine from a Psammocinia sp. Sponge: Isolation, Synthesis, and SAR Study on the Inhibition of RANKL-Induced Formation of Multinuclear Osteoclasts” (J Nat Prod, 2021)
Active and inactive are the calls of the source. The calls are words filed in the database; no cut-off is given here.

How the values were obtained:
RAW264.7 [1] = assay: Cytotoxicity against mouse RAW264.7 cells at 50 uM by MTT assay; type: cell-based; details: raw264.7, 50 µM
RAW264.7 [2] = assay: Inhibition of RANKL-induced osteoclastogenesis in mouse RAW264.7 cells assessed as reduction in number of TRAP-positive multinuclear cells measured after 4 days by TRAP staining based assay; type: functional, cell-based
RAW264.7 [3] = assay: Inhibition of RANKL-induced osteoclastogenesis in mouse RAW264.7 cells assessed as reduction in number of TRAP-positive multinuclear cells at 50 uM measured after 4 days by TRAP staining based assay; type: functional; details: for inhibition: time 4.0 day
RAW264.7 [4] = assay: Inhibition of RANKL-induced osteoclastogenesis in mouse RAW264.7 cells assessed as reduction in NFATc1 mRNA expression measured after 24 hrs by RT-PCR analysis; type: functional, cell-based; details: dose 30-50 µM
RAW264.7 [5] = assay: Cytotoxicity against mouse RAW264.7 cells at 25 uM by MTT assay; type: cell-based; details: raw264.7, 25 µM

SMILES | Activity (RAW264.7 [1]) | IC50 (RAW264.7 [2]; Mus musculus, RAW264.7, 96 h) | further results
OCc1c[nH]c2c(Br)c3c(c(Br)c12)OCO3 | Non-Toxic | 10 µM | –
O=Cc1c[nH]c2c(Br)c3c(c(Br)c12)OCO3 | Non-Toxic | 13.9 µM | –
Brc1c2c(cc3cc[nH]c13)OCO2 | Non-Toxic | 35.4 µM | –
Brc1c2c(cc3[nH]ccc13)OCO2 | Non-Toxic | 16.8 µM | –
Brc1[nH]c2cc3c(cc2c1Br)OCO3 | Non-Toxic | – | inhibition at 50 µM (RAW264.7 [3]; RAW264.7, 96 h, time 4 day): 40%
O=C(c1ccccc1)n1ccc2c(Br)c3c(c(Br)c21)OCO3 | Non-Toxic | – | inhibition (RAW264.7 [3]): inactive
Brc1c2c(c(Br)c3c1OCO3)NCC2 | Non-Toxic | 25.6 µM | –
c1cc2cc3c(cc2[nH]1)OCO3 | Non-Toxic | – | inhibition (RAW264.7 [3]): inactive
CCCCCCCC(=O)n1ccc2c(Br)c3c(c(Br)c21)OCO3 | Non-Toxic | 11.1 µM | –
Clc1c2c(c(Cl)c3[nH]ccc13)OCO2 | Non-Toxic | 40 µM | –
Brc1c2c(c(Br)c3[nH]ccc13)OCO2 | Non-Toxic | 10.5 µM | inhibition (RAW264.7 [4]): Dose-Dependent Effect; IC50 (RAW264.7 [2]; raw264.7): 9.4 µM; inhibition (RAW264.7 [2]; time 4.0 day): Dose-Dependent Effect
CCCCCCCCCCCCCC(=O)n1ccc2c(Br)c3c(c(Br)c21)OCO3 | Non-Toxic | – | inhibition (RAW264.7 [3]): inactive
Cc1c[nH]c2c(Br)c3c(c(Br)c12)OCO3 | Non-Toxic | 8.1 µM | –
NCCc1c[nH]c2c(Br)c3c(c(Br)c12)OCO3 | – | 5.9 µM | Activity (RAW264.7 [5]): Toxic
COc1c(OC)c(Br)c2[nH]ccc2c1Br | Non-Toxic | 6.3 µM | –
CC(=O)n1ccc2c(Br)c3c(c(Br)c21)OCO3 | Non-Toxic | 11.7 µM | –
CCCC(=O)n1ccc2c(Br)c3c(c(Br)c21)OCO3 | Non-Toxic | 7.9 µM | –
